Source: patent US20060286561A1, “PROPARGYLETHOXYAMINO NUCLEOTIDES” (Applera Corporation; Applied Biosystems Group, priority 1996, published 2006)

How the values were obtained:
Format in all cases: biochemical
[1] = molecular target: T1, AmpliTaq DNA Polymerase, FS (Thermus aquaticus, UniProt P19821, F667Y/G46D); test: Terminator Titration Assay (dye-terminator cycle sequencing reaction); conditions: for Relative Molar Excess Terminator Required: to form a full sequencing ladder
T1 construct: purchased PE Applied Biosystems p/n 402117
Source text: The Terminator Titration Assay was used to determine the minimum amount of dye terminator required to create a full sequencing ladder, i.e., a sequencing ladder including all fragments terminating in a particular base having a length of between about 20 to about 600 nucleotides. The key components of the assay were (i) a primer labeled with a first dye, and (i) a terminator labeled with a second dye spectrally resolvable from the first dye. In the assay, when an insufficient concentration of dye terminator was added to the sequencing reaction, no dideoxy-terminated fragments were formed, and all that was seen on the sequencing gel were products formed by “false stops” that were labeled with the first dye only. As used herein the term “false stops” refer to primer extension products not terminating in a dideoxy terminator, such products probably being formed when the polymerase enzyme spontaneously disengages with the template strand. When too much terminator was used, only short termination products were formed, i.e., less than about 50 nucleotides in length, such products including both the first and second dyes. When the proper amount of terminator was used, a full sequencing ladder was produced, each fragment of the ladder being labeled with both the first and second dyes.
The dye-terminator reactions were performed using AmpliTaq DNA Polymerase, FS following protocols provided in the ABI PRISM™ Dye Terminator Cycle Sequencing Core Kit Manual (PE Applied Biosystems p/n 402116). (The FS enzyme is a recombinant Thermus aquaticus DNA polymerase having two point mutations--G46D and F667Y). All reagents except the dNTP mix, dye labeled primers, and dye-labeled terminators were from an ABI PRISM™ Dye Terminator Core Kit (PE Applied Biosystems p/n 402117). The dNTP mix consisted of 2 mM each of dATP, dCTP, dGTP and dTTP. A premix of reaction components was prepared as shown in the following table wherein all quantities are given on a per reaction basis:
Reactions were assembled in 0.5 ml tubes adapted for the Perkin-Elmer 480 DNA Thermal Cycler (PE Applied Biosystems p/n N801-100). Reaction volumes were 20 μL, including 15 μL, of the above reaction premix, a variable amount of dye labeled terminator, and a sufficient volume of water to bring the total reaction volume up to 20 μL. From 1 to 1000 pmol of the dye terminator was added to each reaction. 30 μL of mineral oil was added to the top of each reaction to prevent evaporation. Reactions were thermocycled as follows: 96° C. for 30 sec, 50° C. for 15 sec, and 60° C. for 4 min, for 25 cycles; followed by a 4° C. hold cycle.
All reactions were purified by spin-column purification on Centri-Sep spin columns according to manufacturer's instructions (Princeton Separations p/n CS-901). Gel material in the column was hydrated with 0.8 mL deionized water for at least 30 minutes at room temperature. After the column was hydrated and it was determined that no bubbles were trapped in the gel material, the upper and lower end caps of the column were removed, and the column was allowed to drain by gravity. The column was then inserted into the wash tubes provided in the kit and centrifuged in a variable speed microcentrifuge at 1300×g for 2 minutes, removed from the wash tube, and inserted into a sample collection tube. The reaction mixture was carefully removed from under the oil and loaded onto the gel material. Columns were centrifuged in a variable speed microcentrifuge at 1300×g for 2 minutes. Eluted samples were then dried in a vacuum centrifuge.
Prior to loading onto a sequencing gel, the dried samples were resuspended in 25 μL of Template Suppression Reagent (PE Applied Biosystems p/n 401674), vortexed, heated to 95° C. for 2 minutes, cooled on ice, vortexed again, and centrifuged (13,000×g). 10 μL of the resuspended sample was aliquoted into sample vials (PE Applied Biosystems p/n 401957) adapted for the PE ABI PRISM™ 310 Genetic Analyzer (PE Applied Biosystems p/n 310-00-100/120). […]

[2] = molecular target: AmpliTaq FS Polymerase (mutant form of Taq DNA polymerase) (Thermus aquaticus, UniProt P19821, F667Y/G46D); test: Single-Nucleotide Incorporation Assay for relative enzyme selectivity; conditions: for ddCTP/(Dye)-ddCTP (ratio of incorporation rates, preference for unlabeled ddCTP): ddCTP and dye-ddCTP each 200 μM, 8 nM enzyme, 60° C., corrected for energy transfer
Source text: In the assay, an unlabeled terminator and its cognate dye-labeled terminator are present in equal concentrations and allowed to compete for the same polymerase-substrate binding site under enzyme limited (steady-state) conditions.
With reference to FIG. 3, the components of the assay include a 36 nucleotide template (5); a 25 nucleotide primer (10) having a sequence complementary to the template and a first fluorescent label at the 5′-end (15); an unlabeled terminator (20); a dye-labeled terminator (25) having a second fluorescent label attached thereto (30) which is spectrally resolvable from the first fluorescent label; and a polymerase enzyme. In the present example, the unlabeled terminator was 2′,3′-ddCTP and the dye-labeled terminator was 6-(FAM)-ddCTP where different linker arms were used to attach the dye to the nucleotide. The template DNA contained a single G (35) at the template position following the end of the primer.
Products (40) and (45) were detected by resolving them electrophoretically and detecting the resulting bands using an ABI PRISM™ 373 DNA Sequencer (PE Applied Biosystems). A typical banding pattern consisted of a 25-mer band corresponding to the labeled primer (10), a 26-mer band corresponding to the product (40) and an “apparent 27-mer” which corresponded to product (45). The apparent extra base seen in product (45) is a result of the effect of the dye-labeled terminator on the electrophoretic mobility of the fragment. By taking samples from a reaction mixture and measuring the relative amounts of DNA in the 25-mer, 26-mer, and apparent 27-mer bands as a function of time, it was possible to measure the relative incorporation rates of the unlabeled and dye-labeled terminators in the reaction. […] In this manner, it was possible to measure the effect of linker structure on dye-terminator incorporation.
For the case of product (45), it is necessary to correct the fluorescence signal for fluorescence energy transfer which takes place between the first fluorescent label (15) located at the 5′-end of product (45), TAMRA in this example, and the second fluorescent label (30) located on the terminator positioned at the 3′-end of product (45), FAM in this example. Under the conditions used for detection, the presence of the 3′-FAM label serves to enhance the signal resulting from the TAMRA label. The energy-transfer correction is accomplished by synthesizing a doubly labeled internal standard molecule having the same structure as product (45), preparing a control sample containing equal moles of the 5′-TAMRA labeled primer (10) and the doubly labeled internal standard molecule, and running the control sample in a control lane on the same gel as assay products (40) and (45). Any difference in TAMRA fluorescence between the primer (10) and the doubly labeled internal standard is a quantitative measure of the extent of energy transfer between the dye moieties in the assay product (45). […] This measurement was used to correct the TAMRA fluorescence from the product (45) in each of the test sample lanes.
(The numbers in parenthesis next to certain components refer to elements in FIG. 3.)
The assay reactions were prepared as follows. Two 2×-concentrated “Half Reaction Mixtures” were prepared and held on ice. A first solution, the “2× Enz·DNA” mixture, comprised […] template/primer DNA and […] AmpliTaq FS in 80 mM TRIS buffer. A second solution, the “2× Mg·Nuc” mixture, comprised 80 mM TRIS buffer plus 4.8 mM MgCl2 and each of the nucleotides at 400 μM. A “Zero Time Control” sample was prepared by adding 1 μl of the 2× Enz-DNA mixture to 25 μl of “STOP Solution” (0.5 M EDTA, […]), and, after mixing, adding 1 μl of the 2× Mg·Nuc mixture. The Zero Time Control sample was held on ice until the remainder of the timed samples were also collected for further processing. […]

[3] = molecular target: T1, AmpliTaq DNA Polymerase, FS; test: Terminator Titration Assay (dye-terminator cycle sequencing reaction); conditions: for mean peak height / relative error of peak height (standard deviation / mean): FIG. 2, at optimal terminator concentration; for relative error of peak height (standard deviation / mean): lower = more even peak heights; for optimal concentration of terminator: FIG. 2, sequencing pattern comparison
[4] = C-terminator linked to 6-FAM dye, unlabeled dideoxy terminator = 1
[5] = C-terminator, various combinations of dyes and linkers, unlabeled terminator = 1

T1 sequence (P19821 whole entry G46D/F667Y): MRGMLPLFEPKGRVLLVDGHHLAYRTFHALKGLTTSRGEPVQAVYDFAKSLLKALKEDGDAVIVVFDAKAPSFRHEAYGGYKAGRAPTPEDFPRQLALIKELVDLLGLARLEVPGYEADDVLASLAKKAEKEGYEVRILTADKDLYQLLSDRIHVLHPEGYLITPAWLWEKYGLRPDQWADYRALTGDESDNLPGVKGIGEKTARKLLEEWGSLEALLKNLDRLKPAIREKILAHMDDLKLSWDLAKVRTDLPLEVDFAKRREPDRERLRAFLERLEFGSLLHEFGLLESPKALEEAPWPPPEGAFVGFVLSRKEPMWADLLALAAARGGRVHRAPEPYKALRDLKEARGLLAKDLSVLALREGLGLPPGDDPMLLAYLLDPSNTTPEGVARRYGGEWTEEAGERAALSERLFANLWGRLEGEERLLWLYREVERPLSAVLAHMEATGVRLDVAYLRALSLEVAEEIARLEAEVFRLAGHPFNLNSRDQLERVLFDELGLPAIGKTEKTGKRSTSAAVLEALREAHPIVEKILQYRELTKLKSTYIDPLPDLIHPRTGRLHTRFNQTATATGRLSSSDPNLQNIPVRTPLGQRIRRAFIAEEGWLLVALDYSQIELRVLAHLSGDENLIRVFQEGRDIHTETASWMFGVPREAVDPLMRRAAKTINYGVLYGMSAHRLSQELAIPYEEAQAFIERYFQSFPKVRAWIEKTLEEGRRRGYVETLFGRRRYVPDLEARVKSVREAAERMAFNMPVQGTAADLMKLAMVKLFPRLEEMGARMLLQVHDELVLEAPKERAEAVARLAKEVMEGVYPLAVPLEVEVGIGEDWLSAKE
AmpliTaq FS Polymerase (mutant form of Taq DNA polymerase), sequence (P19821 whole entry G46D/F667Y): as above

Compound	Relative Molar Excess Terminator Required [1, 4]	Relative Molar Excess Terminator Required [1, 5]	ddCTP/(Dye)-ddCTP (ratio of incorporation rates, preference for unlabeled ddCTP) [2] [×]	ddCTP/(Dye)-ddCTP (ratio of incorporation rates, preference for unlabeled ddCTP) ([2]; listed as FAM-ddCTP (propargylamido linker)) [×]	mean peak height [3]	relative error of peak height (standard deviation / mean) [3]	optimal concentration of terminator [3] [pmol]	reduced molar excess as compared with terminators employing the propargylamido linker ([1]; C-terminator)	reduced molar excess as compared with terminators employing a propargyl-2-ethoxyamido linker ([1]; C-terminator linked to 6-FAM)	ddCTP/(Dye)-ddCTP (ratio of incorporation rates, preference for unlabeled ddCTP) ([2]; listed as FAM-ddCTP (propargyl-1-ethoxyamido linker)) [×]	increase of bias against dye-ddCTP versus propargylamido linker ([2]; FAM-ddCTP, from 65× to 110×)	ddCTP/(Dye)-ddCTP (ratio of incorporation rates, preference for unlabeled ddCTP) ([2]; listed as FAM-ddCTP (propargyl-2-ethoxyamido linker)) [×]
Nc1nc(=O)n(C2CCC(COP(=O)(O)OP(=O)(O)OP(=O)(O)O)O2)cc1C#CCNC(=O)c1ccc2c(c1)C(=O)OC21c2ccc(O)cc2Oc2cc(O)ccc21 (stereo not shown) [(6-FAM)-propargylamido-C, reference compound]	55	55	65	65	1800	0.533	250					
Nc1ccn([C@H]2CC[C@@H](COP(=O)(O)OP(=O)(O)OP(=O)(O)O)O2)c(=O)n1 [Unlabeled terminator, 2′,3′-ddCTP, reference compound]	1	1										
Nc1nc(=O)n(C2CCC(COP(=O)(O)OP(=O)(O)OP(=O)(O)O)O2)cc1C#CCOCCNC(=O)c1ccc2c(c1)C(=O)OC21c2ccc(O)cc2Oc2cc(O)ccc21 (stereo not shown) [(6-FAM)-propargyl-1-ethoxyamido-C]	9	9	19		504	0.436	50	six-fold	five-fold	19		
Nc1nc(=O)n(C2CCC(COP(=O)(O)OP(=O)(O)OP(=O)(O)O)O2)cc1C#CCOCCOCCNC(=O)c1ccc2c(c1)C(=O)OC21c2ccc(O)cc2Oc2cc(O)ccc21 (stereo not shown) [(6-FAM)-propargyl-2-ethoxyamido-C]	45		110								about 2 fold	110
